PubChem BioAssay (NCI)
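Cells were grown in 96-well plates and exposed to each compound for 48 hours at five concentrations; endpoints were interpolated linearly between bracketing concentrations, or set to the highest concentration if not reached. TGI: concentration producing complete growth inhibition.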

Experiments:
Assay in all cases: inhibition of tumour cell growth, NCI panel, 48 h
[1] = test system: 786-0 renal
[2] = test system: A498 renal
[3] = test system: A549 NSCLC
[4] = test system: ACHN renal
[5] = test system: BT-549 breast
[6] = test system: CAKI-1 renal
[7] = test system: CCRF-CEM leukemia
[8] = test system: COLO 205 colon
[9] = test system: DU-145 prostate
[10] = test system: EKVX NSCLC
[11] = test system: HCC-2998 colon
[12] = test system: HCT-116 colon
[13] = test system: HCT-15 colon
[14] = test system: HOP-62 NSCLC
[15] = test system: HOP-92 NSCLC
[16] = test system: HS 578T breast
[17] = test system: HT29 colon
[18] = test system: IGROV1 ovarian
[19] = test system: K-562 leukemia
[20] = test system: KM12 colon
[21] = test system: LOX IMVI melanoma
[22] = test system: M14 melanoma
[23] = test system: MALME-3M melanoma
[24] = test system: MCF7 breast
[25] = test system: MDA-MB-231 breast
[26] = test system: MDA-MB-435
[27] = test system: MDA-N
[28] = test system: MOLT-4 leukemia
[29] = test system: NCI-H226 lung
[30] = test system: NCI-H23 lung
[31] = test system: NCI-H460 lung
[32] = test system: NCI-H522 lung
[33] = test system: NCI/ADR-RES ovarian
[34] = test system: OVCAR-3 ovarian
[35] = test system: OVCAR-4 ovarian
[36] = test system: OVCAR-5 ovarian
[37] = test system: OVCAR-8 ovarian
[38] = test system: PC-3 prostate
[39] = test system: RPMI-8226 leukemia
[40] = test system: RXF 393 renal
[41] = test system: SF-268 CNS
[42] = test system: SF-295 CNS
[43] = test system: SK-MEL-2 melanoma
[44] = test system: SK-MEL-28 melanoma
[45] = test system: SK-MEL-5 melanoma
[46] = test system: SK-OV-3 ovarian
[47] = test system: SN12C renal
[48] = test system: SNB-19 CNS
[49] = test system: SNB-75 CNS
[50] = test system: SR leukemia
[51] = test system: SW-620 colon
[52] = test system: T-47D breast
[53] = test system: TK-10 renal
[54] = test system: U251 CNS
[55] = test system: UACC-257 melanoma
[56] = test system: UACC-62 melanoma
[57] = test system: UO-31 renal
[58] = test system: SF-539 CNS

Compound `Cn1c(O)c(C2=Nc3ccccc3C2=O)c2ccccc21` has a TGI [1] greater than 100 µM, a TGI [2] greater than 100 µM and a TGI [3] greater than 100 µM. The TGI [4] was greater than 100 µM, the TGI [5] was greater than 100 µM and the TGI [6] was greater than 100 µM. The TGI [7] was greater than 100 µM, the TGI [8] was greater than 100 µM and the TGI [9] was greater than 100 µM. For the same compound, the TGI [10] was greater than 100 µM, the TGI [11] was greater than 100 µM and the TGI [12] was greater than 100 µM. The TGI [13] was greater than 100 µM, the TGI [14] was greater than 100 µM and the TGI [15] was greater than 100 µM. The TGI [16] was greater than 100 µM, the TGI [17] was greater than 100 µM and the TGI [18] was greater than 100 µM. The TGI [19] was greater than 100 µM, the TGI [20] was greater than 100 µM and the TGI [21] was greater than 100 µM. The TGI [22] was greater than 100 µM, the TGI [23] was greater than 100 µM and the TGI [24] was greater than 100 µM. For the same compound, the TGI [25] was greater than 100 µM, the TGI [26] was greater than 100 µM and the TGI [27] was greater than 100 µM. It also gave a TGI [28] greater than 100 µM, a TGI [29] greater than 100 µM and a TGI [30] greater than 100 µM. The TGI [31] was greater than 100 µM, the TGI [32] was greater than 100 µM and the TGI [33] was greater than 100 µM. It also gave a TGI [34] greater than 100 µM, a TGI [35] greater than 100 µM and a TGI [36] greater than 100 µM. The TGI [37] was greater than 100 µM, the TGI [38] was greater than 100 µM and the TGI [39] was greater than 100 µM. It also gave a TGI [40] greater than 100 µM, a TGI [41] greater than 100 µM and a TGI [42] greater than 100 µM. It also gave a TGI [43] greater than 100 µM, a TGI [44] greater than 100 µM and a TGI [45] greater than 100 µM. It also gave a TGI [46] greater than 100 µM, a TGI [47] greater than 100 µM and a TGI [48] greater than 100 µM. It also gave a TGI [49] greater than 100 µM, a TGI [50] greater than 100 µM and a TGI [51] greater than 100 µM. For the same compound, the TGI [52] was greater than 100 µM, the TGI [53] was greater than 100 µM and the TGI [54] was greater than 100 µM. The TGI [55] was greater than 100 µM, the TGI [56] was greater than 100 µM and the TGI [57] was greater than 100 µM.

Work on `Oc1ccc2ccccc2c1CN(Cc1c(O)ccc2ccccc12)C1CCCCC1` yielded a TGI [1] of 30.7 µM, a TGI [2] of 71.6 µM and a TGI [3] of 44.4 µM. For the same compound, the TGI [4] was 34.7 µM, the TGI [5] was 42.7 µM and the TGI [6] was 33.6 µM. The TGI [7] was greater than 100 µM, the TGI [8] was 29.6 µM and the TGI [9] was 42.8 µM. For the same compound, the TGI [10] was 29.7 µM, the TGI [11] was 27.7 µM and the TGI [12] was 29.3 µM. The TGI [13] was 45.4 µM, the TGI [14] was greater than 100 µM and the TGI [15] was 37.1 µM. For the same compound, the TGI [16] was 79 µM, the TGI [17] was 39.6 µM and the TGI [18] was 27.6 µM. The TGI [19] was 53.5 µM, the TGI [20] was greater than 100 µM and the TGI [21] was 28.2 µM. It also gave a TGI [22] of 31.3 µM, a TGI [23] of 29.2 µM and a TGI [24] of 29.3 µM. For the same compound, the TGI [25] was 44.1 µM, the TGI [26] was 43.6 µM and the TGI [27] was 28.7 µM. For the same compound, the TGI [28] was 41.4 µM, the TGI [30] was 31.5 µM and the TGI [31] was 51 µM. The TGI [32] was 27.1 µM, the TGI [33] was 54.9 µM and the TGI [34] was 41.7 µM. It also gave a TGI [35] of 47.1 µM, a TGI [36] greater than 100 µM and a TGI [37] of 44.6 µM. It also gave a TGI [38] of 38.2 µM, a TGI [39] of 97.2 µM and a TGI [40] of 46.7 µM. The TGI [41] was 27 µM, the TGI [42] was greater than 100 µM and the TGI [58] was 29.4 µM. For the same compound, the TGI [43] was 67.1 µM, the TGI [44] was 51.9 µM and the TGI [45] was 28.1 µM. The TGI [46] was greater than 100 µM, the TGI [47] was 28 µM and the TGI [48] was 90.2 µM. It also gave a TGI [49] of 50.5 µM, a TGI [50] of 83.9 µM and a TGI [51] of 48.9 µM. The TGI [52] was greater than 100 µM, the TGI [53] was 36.9 µM and the TGI [54] was 45.2 µM. For the same compound, the TGI [55] was 28.7 µM, the TGI [56] was 32.9 µM and the TGI [57] was 38.1 µM.
